# According to patent publication US9315518B2, “Imidazopyridin-2-one derivatives” (Merck Sharp & Dohme Corp., priority 2011, dated 2016):
# Target: recombinant human mGluR2 (Homo sapiens (Human), UniProt Q14416)
# Test: FLIPR Ca2+ mobilization assay, potentiation of glutamate response
# Type: cell-based
# Conditions: CHO dhfr- cells expressing human mGluR2 and Gα16; potentiation with EC20 glutamate (900 nM); read-out: hFLIPR pot. EC50
# Description: Inhibition constants are determined as follows. The compounds of the present invention may be tested in a […] (FLIPR) based assay. This assay is a common functional assay to monitor Ca^2+ mobilization in whole cells expressing recombinant receptor coupled with a promiscuous G-protein. CHO dhfr-cells stably expressing recombinant human mGluR2 and Gα16 loaded with Fluo-4 AM (Invitrogen, Carlsbad Calif.) are treated with dose responses of compounds and the Ca^2+ response is monitored on a FLIPR384 (Molecular Devices, Sunnydale Calif.) for agonist activity. The potentiation response is monitored after a subsequent addition of an EC20 concentration of glutamate (900 nM). The maximum calcium response at each concentration of compound for agonist or potentiation are plotted as dose responses and the curves are fitted with a four parameters logistic equation giving EC50 and Hill coefficient using the iterative non linear curve fitting software program.
# recombinant human mGluR2, sequence (Q14416 19-872): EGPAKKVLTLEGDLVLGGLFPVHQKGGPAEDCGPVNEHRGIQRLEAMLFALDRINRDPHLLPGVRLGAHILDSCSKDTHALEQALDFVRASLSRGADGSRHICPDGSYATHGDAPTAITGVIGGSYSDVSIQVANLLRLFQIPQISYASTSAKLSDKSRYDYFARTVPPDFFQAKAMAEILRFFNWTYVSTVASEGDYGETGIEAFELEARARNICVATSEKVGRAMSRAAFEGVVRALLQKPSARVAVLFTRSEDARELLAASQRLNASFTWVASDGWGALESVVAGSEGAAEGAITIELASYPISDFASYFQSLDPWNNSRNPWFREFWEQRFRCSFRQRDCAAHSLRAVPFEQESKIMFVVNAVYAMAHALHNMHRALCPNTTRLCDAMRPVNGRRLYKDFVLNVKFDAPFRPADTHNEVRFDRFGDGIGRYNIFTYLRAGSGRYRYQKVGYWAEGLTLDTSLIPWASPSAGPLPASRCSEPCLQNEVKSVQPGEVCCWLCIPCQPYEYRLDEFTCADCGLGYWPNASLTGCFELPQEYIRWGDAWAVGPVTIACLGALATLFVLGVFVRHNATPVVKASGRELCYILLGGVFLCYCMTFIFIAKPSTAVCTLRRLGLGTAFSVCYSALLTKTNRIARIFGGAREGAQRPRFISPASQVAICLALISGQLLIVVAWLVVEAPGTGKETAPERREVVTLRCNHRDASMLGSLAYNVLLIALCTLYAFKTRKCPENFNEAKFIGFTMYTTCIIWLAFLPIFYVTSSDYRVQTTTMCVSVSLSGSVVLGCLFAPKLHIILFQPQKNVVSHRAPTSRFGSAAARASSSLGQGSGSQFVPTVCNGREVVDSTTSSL
row,Structure (SMILES),EC50
1,"Cn1c(=O)n(CC(C)(C)C)c2ccc(C3=CCC(C(=O)NCc4ncco4)CC3)nc21 (stereo not shown) [Compound 17-15, 4-[1-(2,2-dimethylpropyl)-3-methyl-2-oxo-2,3-dihydro-1H-imidazo[4,5-b]pyridin-5-yl]-N-(1,3-oxazol-2-ylmethyl)cyclohex-3-ene-1-carboxamide]",594 nM
2,"Cn1c(=O)n(CC(C)(C)C)c2ccc(C3CCC(C)(C)C(NC(=O)CCn4cncn4)C3)nc21 (stereo not shown) [Compound 18-10, N-{5-[1-(2,2-dimethylpropyl)-3-methyl-2-oxo-2,3-dihydro-1H-imidazo[4,5-b]pyridin-5-yl]-2,2-dimethylcyclohexyl}-3-(1H-1,2,4-triazol-1-yl)propanamide]",2190 nM
3,"Cn1c(=O)n(CC(C)(C)C)c2ccc(C3CC4CCC3CN4C(=O)c3ccon3)nc21 (stereo not shown) [Compound 5-2, 1-(2,2-Dimethylpropyl)-5-[2-(isoxazol-3-ylcarbonyl)-2-azabicyclo[2.2.2]-oct-5-yl]-3-methyl-1,3-dihydro-2H-imidazo[4,5-b]pyridin-2-one]",322 nM
4,"Cn1c(=O)n(CC(C)(C)C)c2ccc(C3CCC(C)(C)C(NC(=O)c4cnsn4)C3)nc21 (stereo not shown) [Compound 18-200, N-{5-[1-(2,2-dimethylpropyl)-3-methyl-2-oxo-2,3-dihydro-1H-imidazo[4,5-b]pyridin-5-yl]-2,2-dimethylcyclohexyl}-1,2,5-thiadiazole-3-carboxamide]",43.2 nM
5,"Cn1c(=O)n(CC(C)(C)C)c2ccc(C3=CC4CCC3CN4C(=O)c3cccnc3)nc21 (stereo not shown) [Compound 2-9, 1-(2,2-dimethylpropyl)-3-methyl-5-[2-(pyridin-3-ylcarbonyl)-2-azabicyclo[2.2.2]oct-5-en-5-yl]-1,3-dihydro-2H-imidazo[4,5-b]pyridin-2-one]",100 nM
6,"Cn1cnc(C(=O)NCCCCc2ccc3c(n2)n(C)c(=O)n3CC(C)(C)C)c1 [Compound 38-5, N-{4-[1-(2,2-dimethylpropyl)-3-methyl-2-oxo-2,3-dihydro-1H-imidazo[4,5-b]pyridin-5-yl]butyl}-1-methyl-1H-imidazole-4-carboxamide]",1180 nM
7,"Cc1cccc(S(=O)(=O)NC2CC(c3ccc4c(n3)n(C)c(=O)n4CC(C)(C)C)CCC2(C)C)c1 (stereo not shown) [Compound 19-62, N-{5-[1-(2,2-dimethylpropyl)-3-methyl-2-oxo-2,3-dihydro-1H-imidazo[4,5-b]pyridin-5-yl]-2,2-dimethylcyclohexyl}-3-methylbenzenesulfonamide]",116 nM
8,"CC1C(c2ccc3c(n2)N(C)S(=O)(=O)N3CC2CC2(F)F)C1C(C)(C)O (stereo not shown) [Compound 34-3, 2-(2-{1-[(2,2-difluorocyclopropyl)methyl]-3-methyl-2,2-dihydro[1,2,5]thiadiazolo[3,4-b]pyridin-5-yl}-3-methylcyclopropyl) propan-2-ol]",14.4 nM
9,"Cn1c(=O)n(CC(C)(C)C)c2ccc(C3=CC4CCC3CN4C(=O)Cn3cncn3)nc21 (stereo not shown) [Compound 2-22, 1-(2,2-dimethylpropyl)-3-methyl-5-[2-(1H-1,2,4-triazol-1-ylacetyl)-2-azabicyclo[2.2.2]oct-5-en-5-yl]-1,3-dihydro-2H-imidazo[4,5-b]pyridin-2-one]",56.1 nM
10,"Cn1c(=O)n(CC(C)(C)C)c2ccc(C3=CC4CN(C(=O)CO)CC4C3)nc21 (stereo not shown) [Compound 8-9, 1-(2,2-dimethylpropyl)-5-[2-(hydroxyacetyl)-1,2,3,3a,4,6a-hexahydrocyclopenta[c]pyrrol-5-yl]-3-methyl-1,3-dihydro-2H-imidazo[4,5-b]pyridin-2-one]",270 nM
11,"CN1c2nc(C3=CCN(C(=O)c4ccon4)C3)ccc2N(CC2CC2(F)F)S1(=O)=O (stereo not shown) [Compound 24-20, 1-[(2,2-difluorocyclopropyl)methyl]-5-[1-(isoxazol-3-ylcarbonyl)-2,5-dihydro-1H-pyrrol-3-yl]-3-methyl-1,3-dihydro[1,2,5] thiadiazolo[3,4-b]pyridine 2,2-dioxide]",177 nM
12,"Cn1c(=O)n(CC(C)(C)C)c2ccc(C3=CC4CCC3CN4C(=O)c3ncco3)nc21 (stereo not shown) [Compound 2-34, 1-(2,2-dimethylpropyl)-3-methyl-5-[2-(1,3-oxazol-2-ylcarbonyl)-2-azabicyclo[2.2.2]oct-5-en-5-yl]-1,3-dihydro-2H-imidazo[4,5-b]pyridin-2-one]",22.8 nM
13,"Cn1c(=O)n(CC(C)(C)C)c2ccc(C3CC4CN(C(=O)c5ncc[nH]5)CC4C3)nc21 (stereo not shown) [Compound 11-5, 1-(2,2-dimethylpropyl)-5-[2-(1H-imidazol-2-ylcarbonyl)octahydrocyclo-penta[c]pyrrol-5-yl]-3-methyl-1,3-dihydro-2H-imidazo[4,5-b]pyridin-2-one]",391 nM
14,"CN1c2nc(C3CCCNC3)ccc2N(CC2CC2(F)F)S1(=O)=O (stereo not shown) [Compound 25-5, 1-[(2,2-difluorocyclopropyl)methyl]-3-methyl-5-piperidin-3-yl-1,3-dihydro[1,2,5] thiadiazolo[3,4-b]pyridine 2,2-dioxide]",359 nM
15,"Cn1c(=O)n(CC(C)(C)C)c2ccc(C3CCC(C)(C)C(NC(=O)c4ccc(OC(F)(F)F)cc4)C3)nc21 (stereo not shown) [Compound 18-42, N-{5-[1-(2,2-dimethylpropyl)-3-methyl-2-oxo-2,3-dihydro-1H-imidazo[4,5-b]pyridin-5-yl]-2,2-dimethylcyclohexyl}-4-(trifluoro-methoxy)benzamide]",986 nM
16,"Cn1c(=O)n(CC(C)(C)C)c2ccc(C3=CC4CCC3CN4C(=O)C3CC3)nc21 (stereo not shown) [Compound 2-16, 5-[2-(cyclopropylcarbonyl)-2-azabicyclo[2.2.2]oct-5-en-5-yl]-1-(2,2-dimethylpropyl)-3-methyl-1,3-dihydro-2H-imidazo[4,5-b]pyridin-2-one]",64.1 nM
17,"Cn1c(=O)n(CC(C)(C)C)c2ccc(C3=CCC(NC(=O)C4CCCO4)CC3)nc21 (stereo not shown) [Compound 17-20, N-{4-[1-(2,2-dimethylpropyl)-3-methyl-2-oxo-2,3-dihydro-1H-imidazo[4,5-b]pyridin-5-yl]cyclohex-3-en-1-yl}tetrahydrofuran-2-carboxamide]",333 nM
18,Cn1c(=O)n(CC(C)(C)C)c2ccc(C3=CC4CN(C(=O)c5ncco5)CC4C3)nc21 (stereo not shown) [Compound 8-38],17.9 nM
19,"Cn1cnc(S(=O)(=O)N2CCCC(c3ccc4c(n3)n(C)c(=O)n4CC(C)(C)C)C2)c1 (stereo not shown) [Compound 19-4, 1-(2,2-dimethylpropyl)-3-methyl-5-{1-[(1-methyl-1H-imidazol-4-yl)sulfonyl]piperidin-3-yl}-1,3-dihydro-2H-imidazo[4,5-b]pyridin-2-one]",951 nM
20,"Cn1c(=O)n(CC(C)(C)C)c2ccc(C3=CC4CCC3CN4C(=O)c3csnn3)nc21 (stereo not shown) [Compound 2-8, 1-(2,2-dimethylpropyl)-3-methyl-5-[2-(1,2,3-thiadiazol-4-ylcarbonyl)-2-azabicyclo[2.2.2]oct-5-en-5-yl]-1,3-dihydro-2H-imidazo[4,5-b]pyridin-2-one]",28.1 nM
21,"Cn1c(=O)n(CC(C)(C)C)c2ccc(C3=CC4CN(C(=O)C5(O)CCN(C(=O)OC(C)(C)C)C5)CC4C3)nc21 (stereo not shown) [Compound 8-6, tert-butyl 3-({5-[1-(2,2-dimethylpropyl)-3-methyl-2-oxo-2,3-dihydro-1H-imidazo[4,5-b]pyridin-5-yl]-3,3a,4,6a-tetrahydrocyclopenta[c]pyrrol-2(1H)-yl}carbonyl)-3-hydroxypyrrolidine-1-carboxylate]",513 nM
22,"Cn1c(=O)n(CC2CC2(F)F)c2ccc(C3=CC4CCC3CN4C(=O)c3ccon3)nc21 (stereo not shown) [Compound 6-4, 1-[(2,2-Difluorocyclopropyl)methyl]-5-[2-(isoxazol-3-ylcarbonyl)-2-azabicyclo-[2.2.2]oct-5-en-5-yl]-3-methyl-1,3-dihydro-2H-imidazo[4,5-b]pyridin-2-one]",29 nM
23,"CN1c2nc(C3=CC4CN(C(=O)C(C)(C)O)CC4C3)ccc2N(CC2CC2(F)F)S1(=O)=O (stereo not shown) [Compound 24-7, 1-[5-{1-[(2,2-difluorocyclopropyl)methyl]-3-methyl-2,2-dioxido-1,3-dihydro[1,2,5]thiadiazolo[3,4-b]pyridin-5-yl}-3,3a,4,6a-tetrahydrocyclopenta [c]pyrrol-2(1H)-yl]-2-methyl-1-oxopropan-2-ol]",48.5 nM
24,"Cn1c(=O)n(CC2CC2(F)F)c2ccc(C3=CC4CN(C(=O)c5ncco5)CC4C3)nc21 (stereo not shown) [Compound 14-6, 1-[(2,2-difluoro-cyclopropyl)methyl]-3-methyl-5-[2-(1,3-oxazol-2-ylcarbonyl)-1,2,3,3a,4,6a-hexahydrocyclo-penta[c]pyrrol-5-yl]-1,3-dihydro-2H-imidazo[4,5-b]pyridin-2-one]",123 nM
25,"Cn1c(=O)n(CC(C)(C)C)c2ccc(C3=CC4CN(C(=O)C5(O)CCC5)CC4C3)nc21 (stereo not shown) [Compound 8-14, 1-(2,2-dimethylpropyl)-5-{2-[(1-hydroxycyclobutyl)carbonyl]-1,2,3,3a,4,6a-hexahydrocyclopenta[c]pyrrol-5-yl}-3-methyl-1,3-dihydro-2H-imidazo[4,5-b]pyridin-2-one]",134 nM
